From patent publication US20260125376A1, “IRREVERSIBLE INACTIVATORS TARGETING ARAF/MEK COMPLEXES” (Dana-Farber Cancer Institute, Inc., priority 2022, published 2026)

Assays:
ARAF/MEK protein complex = ARAF/MEK protein complex (Homo sapiens, UniProt P10398+Q02750); test: Mass spectrometry-based assay for covalent labeling of ARAF; format: binding; details: ARAF/MEK protein complex incubated at room temperature for 2 hours with inhibitor at concentration ratio 1:10; LC-MS of denatured protein
Protocol: Covalent labeling of ARAF by compounds of the invention was measured using a mass spectrometry-based assay. The ARAF/MEK protein complex was incubated at room temperature for 2 hours with desired inhibitors at a concentration ratio of 1:10. Following incubation, proteins were denatured in 8 M urea. Formic acid was added to a final 1% and desalted over C4 resin prior to LCMS analysis. Denatured proteins (10 μg per sample) were analyzed by LC-MS via a U3000 RSLC coupled to an Orbitrap Eclipse mass spectrometer (Thermo Scientific, Waltham, MA, USA). Proteins were eluted off a ES811A (Thermo Scientific, Waltham, MA, USA) 15-cm C4 column with a 5-50% gradient of MeCN in 1% FA. MS scans (range=600-2000 m/z) were obtained in the orbitrap at 120,000 resolution with 4 microscans. The Xtract function in Freestyle software (Thermo Scientific, Waltham, MA, USA) was used to deconvolute charge states averaged across the elution window. Fractional labeling of ARAF was measured by quantitating the unlabeled ARAF and ARAF shifted by the mass expected for formation of a covalent adduct of ARAF with the compound of interest.

[1] = molecular target: T1, ARAF/14-3-3 chimera (residues 274-606 of human ARAF fused to human 14-3-3 epsilon) (Homo sapiens, UniProt P10398+Q02750, D190N/G300S/Y301D/Y302D); test: TR-FRET-based kinase assay: inhibition of phosphorylation of MEK1 by ARAF; format: biochemical; details: 250 nM MEK1(D190N), 75 nM ARAF/14-3-3 chimera, 30 minutes incubation with inhibitor, 200 μM ATP, 1 hour, HTRF
T1 construct: residues 274-606 of human ARAF, including the kinase domain and complete C-terminal region; made in house; host or cells: Sf9 insect cells (baculovirus)
T1 sequence (P10398 274-606 G300S/Y301D/Y302D limits assumed): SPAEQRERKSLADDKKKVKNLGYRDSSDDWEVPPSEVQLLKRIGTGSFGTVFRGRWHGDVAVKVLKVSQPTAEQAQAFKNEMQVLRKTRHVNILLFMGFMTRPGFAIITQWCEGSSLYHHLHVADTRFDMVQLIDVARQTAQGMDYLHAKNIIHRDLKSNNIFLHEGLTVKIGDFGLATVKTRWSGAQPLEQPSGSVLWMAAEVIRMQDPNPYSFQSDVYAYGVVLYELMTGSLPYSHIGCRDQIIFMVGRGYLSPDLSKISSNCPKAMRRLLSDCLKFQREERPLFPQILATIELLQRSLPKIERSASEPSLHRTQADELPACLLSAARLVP
T1 sequence (Q02750 whole entry D190N, the tested form may be a part): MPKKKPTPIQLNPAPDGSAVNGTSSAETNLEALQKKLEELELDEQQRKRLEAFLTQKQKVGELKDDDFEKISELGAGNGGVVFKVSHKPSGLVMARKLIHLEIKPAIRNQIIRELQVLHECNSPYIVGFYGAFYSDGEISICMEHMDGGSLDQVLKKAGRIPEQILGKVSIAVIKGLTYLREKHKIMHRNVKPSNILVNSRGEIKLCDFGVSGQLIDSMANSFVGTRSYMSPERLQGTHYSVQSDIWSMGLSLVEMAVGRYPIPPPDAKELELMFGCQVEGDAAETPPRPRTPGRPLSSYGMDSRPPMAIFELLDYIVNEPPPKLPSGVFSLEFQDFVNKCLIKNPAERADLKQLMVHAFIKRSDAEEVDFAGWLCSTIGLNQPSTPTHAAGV
Protocol: The ability of compounds of the invention to inhibit phosphorylation of MEK by ARAF was measured in a TR-FRET-based kinase assay using purified ARAF and MEK proteins. An active, chimeric ARAF protein was employed for this study. This ARAF protein included residues 274-606 of human ARAF, including the kinase domain and complete C-terminal region, fused to human 14-3-3 epsilon (ARAF/14-3-3 chimera). Amino acids corresponding to residues […] of human ARAF (with the sequence Ser-Gly-Tyr-Tyr) were mutated to Ser-Ser-Asp-Asp in this ARAF/14-3-3 chimera. […] In this assay, the ability of compounds of interest to inhibit phosphorylation of MEK1 by ARAF was measured by incubating 250 nM unphosphorylated full-length MEK1(D190N) with 75 nM ARAF/14-3-3 chimera and inhibitor of interest at a series of 12 concentrations (from 10 μM to 1.3 nM) for 30 minutes in reaction buffer (50 mM HEPES pH 7.0, 5 mM MgCl2, 1 mM MnCl2, 0.01% BSA, 2 mM TCEP, 0.1 mM NaVO4) at room temperature. Reactions were initiated by addition of 200 μM ATP and allowed to proceed for 1 hour. Reactions were quenched using detection buffer from HTRF-KinEASE kit (Cisbio). Signal was read with a PHERAstar plate reader (excitation=337 nm, emission=620 nm and 665 nm). IC50 values were determined using Graphpad Prism software from the 12 point concentration-response data using a three-parameter dose-response fit with the Hill slope constrained to −1.

Sequence of ARAF/MEK protein complex (P10398 whole entry): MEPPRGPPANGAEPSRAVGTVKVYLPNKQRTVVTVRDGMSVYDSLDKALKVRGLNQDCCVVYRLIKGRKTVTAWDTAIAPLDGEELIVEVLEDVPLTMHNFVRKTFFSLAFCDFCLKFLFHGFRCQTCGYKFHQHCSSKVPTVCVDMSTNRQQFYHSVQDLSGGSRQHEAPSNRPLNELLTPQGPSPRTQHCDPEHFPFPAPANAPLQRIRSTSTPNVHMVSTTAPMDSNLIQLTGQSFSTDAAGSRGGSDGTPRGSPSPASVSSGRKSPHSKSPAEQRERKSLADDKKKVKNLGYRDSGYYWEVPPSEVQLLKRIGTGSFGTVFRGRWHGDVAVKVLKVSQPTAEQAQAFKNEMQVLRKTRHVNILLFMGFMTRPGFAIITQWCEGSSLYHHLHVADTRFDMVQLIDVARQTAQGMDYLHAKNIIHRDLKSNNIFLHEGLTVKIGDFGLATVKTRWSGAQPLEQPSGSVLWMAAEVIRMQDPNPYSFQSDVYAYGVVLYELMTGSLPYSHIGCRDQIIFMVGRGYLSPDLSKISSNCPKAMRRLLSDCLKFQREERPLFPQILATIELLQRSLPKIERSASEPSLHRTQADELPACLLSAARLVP
Sequence of ARAF/MEK protein complex (Q02750 whole entry): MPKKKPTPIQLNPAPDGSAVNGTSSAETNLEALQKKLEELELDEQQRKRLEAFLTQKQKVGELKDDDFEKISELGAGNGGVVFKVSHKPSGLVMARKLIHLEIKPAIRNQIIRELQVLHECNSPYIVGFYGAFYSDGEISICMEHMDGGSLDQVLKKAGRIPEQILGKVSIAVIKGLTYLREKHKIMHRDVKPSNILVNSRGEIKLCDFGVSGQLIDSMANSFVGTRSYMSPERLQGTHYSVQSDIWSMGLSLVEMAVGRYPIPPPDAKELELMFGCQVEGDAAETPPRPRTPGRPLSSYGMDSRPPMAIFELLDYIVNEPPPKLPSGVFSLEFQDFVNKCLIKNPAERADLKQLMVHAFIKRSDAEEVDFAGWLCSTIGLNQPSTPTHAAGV

SMILES	% labeling (covalent labeling of ARAF) (ARAF/MEK protein complex) [%]	IC50 [1] [nM]
Cc1c(Cc2ccc(NC(=O)CCl)cc2F)c(=O)oc2cc(Oc3ncccn3)ccc12 [Example 2, 2-Chloro-N-(3-fluoro-4-((4-methyl-2-oxo-7-(pyrimidin-2-yloxy)-2H-chromen-3-yl)methyl)phenyl)acetamide]	50	–
C=CC(=O)Nc1cccc(Cc2c(C)c3ccc(Oc4ncccn4)cc3oc2=O)c1F [Example 3, N-(2-Fluoro-3-((4-methyl-2-oxo-7-(pyrimidin-2-yloxy)-2H-chromen-3-yl)methyl)phenyl)acrylamide]	85	130
Cc1c(Cc2cccc(NC(=O)CCl)c2F)c(=O)oc2cc(Oc3ncccn3)ccc12 [Example 4, 2-Chloro-N-(2-fluoro-3-((4-methyl-2-oxo-7-(pyrimidin-2-yloxy)-2H-chromen-3-yl)methyl)phenyl)acetamide]	100	60
C=CC(=O)Nc1ccc(CNC(=O)c2ccc(F)c(F)c2Nc2ccc(I)cc2F)cc1 [Example 5, N-(4-Acrylamidobenzyl)-3,4-difluoro-2-((2-fluoro-4-iodophenyl)amino)benzamide]	10	–
O=C(CCl)Nc1ccc(CNC(=O)c2ccc(F)c(F)c2Nc2ccc(I)cc2F)cc1 [Example 6, N-(4-(2-Chloroacetamido)benzyl)-3,4-difluoro-2-((2-fluoro-4-iodophenyl)amino)benzamide]	40	–
C=CC(=O)Nc1ccc(CNC(=O)c2cc3c(ncn3C)c(F)c2Nc2ccc(Br)cc2Cl)cc1 [Example 7, N-(4-Acrylamidobenzyl)-5-((4-bromo-2-chlorophenyl)amino)-4-fluoro-1-methyl-1H-benzo[d]imidazole-6-carboxamide]	0	–
Cn1cnc2c(F)c(Nc3ccc(Br)cc3Cl)c(C(=O)NCc3ccc(NC(=O)CCl)cc3)cc21 [Example 8, 5-((4-Bromo-2-chlorophenyl)amino)-N-(4-(2-chloroacetamido)benzyl)-4-fluoro-1-methyl-1H-benzo[d]imidazole-6-carboxamide]	40	–
C=CC(=O)Nc1ccc(Cn2cnc3c(F)c(Nc4ccc(Br)cc4Cl)c(C(=O)OC)cc32)cc1 [Example 9, Methyl 1-(4-acrylamidobenzyl)-5-((4-bromo-2-chlorophenyl)amino)-4-fluoro-1H-benzo[d]imidazole-6-carboxylate]	0	–
COC(=O)c1cc2c(ncn2Cc2ccc(NC(=O)CCl)cc2)c(F)c1Nc1ccc(Br)cc1Cl [Example 10, Methyl 5-((4-bromo-2-chlorophenyl)amino)-1-(4-(2-chloroacetamido)benzyl)-4-fluoro-1H-benzo[d]imidazole-6-carboxylate]	75	–
Cc1c(=O)n(C)c(Nc2ccc(I)cc2F)c2c(=O)n(C3CC3)c(=O)n(-c3cccc(NC(=O)CCl)c3)c12 [Example 11, 2-Chloro-N-(3-(3-cyclopropyl-5-((2-fluoro-4-iodophenyl)amino)-6,8-dimethyl-2,4,7-trioxo-3,4,6,7-tetrahydropyrido[4,3-d]pyrimidin-1(2H)-yl)phenyl)acetamide]	100	490
C=C(F)C(=O)Nc1cccc(-n2c(=O)n(C3CC3)c(=O)c3c(Nc4ccc(I)cc4F)n(C)c(=O)c(C)c32)c1 [Example 12, N-(3-(3-Cyclopropyl-5-((2-fluoro-4-iodophenyl)amino)-6,8-dimethyl-2,4,7-trioxo-3,4,6,7-tetrahydropyrido[4,3-d]pyrimidin-1(2H)-yl)phenyl)-2-fluoroacrylamide]	100	210
